One assay deals with T1, Adenosine receptor A1 (Homo sapiens, UniProt P30542).
T1 sequence (P30542 whole entry): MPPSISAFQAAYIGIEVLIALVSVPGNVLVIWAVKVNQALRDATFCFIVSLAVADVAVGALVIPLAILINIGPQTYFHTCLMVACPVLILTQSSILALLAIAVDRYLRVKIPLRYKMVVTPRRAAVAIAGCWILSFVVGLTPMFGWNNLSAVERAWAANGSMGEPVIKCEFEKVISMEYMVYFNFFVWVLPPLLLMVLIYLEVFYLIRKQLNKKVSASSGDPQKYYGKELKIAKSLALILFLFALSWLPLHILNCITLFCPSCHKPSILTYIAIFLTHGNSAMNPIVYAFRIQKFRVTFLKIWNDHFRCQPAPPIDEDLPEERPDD

For assay [1], the target named is Gamma-aminobutyric acid receptor subunit alpha-1/alpha-2/beta-2/gamma-2 (Homo sapiens, UniProt P14867+P18507+P47869+P47870). The format is protein-complex assay.
Assay [2] deals with Beta-2 adrenergic receptor (Homo sapiens, UniProt P07550). The format is functional, cell-based.
In assay [3] the target is Muscarinic acetylcholine receptor M3 (Homo sapiens, UniProt P20309).
The target of a further assay is T2, Endothelin-1 receptor (Homo sapiens, UniProt P25101).
T2 sequence (P25101 whole entry): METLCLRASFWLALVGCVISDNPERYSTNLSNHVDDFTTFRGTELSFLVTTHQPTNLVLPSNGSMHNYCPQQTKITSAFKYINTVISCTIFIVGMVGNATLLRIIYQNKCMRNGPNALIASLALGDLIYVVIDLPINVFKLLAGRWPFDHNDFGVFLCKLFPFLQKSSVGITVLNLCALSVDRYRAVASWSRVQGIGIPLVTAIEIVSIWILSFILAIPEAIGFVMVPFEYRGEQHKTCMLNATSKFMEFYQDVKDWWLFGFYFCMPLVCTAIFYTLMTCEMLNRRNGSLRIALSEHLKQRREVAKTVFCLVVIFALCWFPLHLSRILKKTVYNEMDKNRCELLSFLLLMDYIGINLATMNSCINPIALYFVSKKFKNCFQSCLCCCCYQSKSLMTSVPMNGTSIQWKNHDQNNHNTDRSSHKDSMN

Assay [4] deals with T3, Alpha-2A adrenergic receptor (Homo sapiens, UniProt P08913).
T3 sequence (P08913 whole entry): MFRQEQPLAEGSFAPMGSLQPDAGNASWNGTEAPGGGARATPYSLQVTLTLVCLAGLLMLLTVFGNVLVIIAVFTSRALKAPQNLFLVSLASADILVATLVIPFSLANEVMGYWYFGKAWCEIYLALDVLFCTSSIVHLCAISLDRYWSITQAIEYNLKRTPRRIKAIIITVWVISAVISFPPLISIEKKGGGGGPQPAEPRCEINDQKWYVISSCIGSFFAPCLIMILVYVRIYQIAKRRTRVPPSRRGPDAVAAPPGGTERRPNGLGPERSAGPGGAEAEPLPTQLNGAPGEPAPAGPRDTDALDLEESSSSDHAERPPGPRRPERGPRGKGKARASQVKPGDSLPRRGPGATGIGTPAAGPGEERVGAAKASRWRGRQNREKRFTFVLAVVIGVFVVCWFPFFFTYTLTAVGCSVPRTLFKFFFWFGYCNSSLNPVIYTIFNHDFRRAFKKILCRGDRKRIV

The next assay addresses T4, Glucocorticoid receptor (Homo sapiens, UniProt P04150).
T4 sequence (P04150 whole entry): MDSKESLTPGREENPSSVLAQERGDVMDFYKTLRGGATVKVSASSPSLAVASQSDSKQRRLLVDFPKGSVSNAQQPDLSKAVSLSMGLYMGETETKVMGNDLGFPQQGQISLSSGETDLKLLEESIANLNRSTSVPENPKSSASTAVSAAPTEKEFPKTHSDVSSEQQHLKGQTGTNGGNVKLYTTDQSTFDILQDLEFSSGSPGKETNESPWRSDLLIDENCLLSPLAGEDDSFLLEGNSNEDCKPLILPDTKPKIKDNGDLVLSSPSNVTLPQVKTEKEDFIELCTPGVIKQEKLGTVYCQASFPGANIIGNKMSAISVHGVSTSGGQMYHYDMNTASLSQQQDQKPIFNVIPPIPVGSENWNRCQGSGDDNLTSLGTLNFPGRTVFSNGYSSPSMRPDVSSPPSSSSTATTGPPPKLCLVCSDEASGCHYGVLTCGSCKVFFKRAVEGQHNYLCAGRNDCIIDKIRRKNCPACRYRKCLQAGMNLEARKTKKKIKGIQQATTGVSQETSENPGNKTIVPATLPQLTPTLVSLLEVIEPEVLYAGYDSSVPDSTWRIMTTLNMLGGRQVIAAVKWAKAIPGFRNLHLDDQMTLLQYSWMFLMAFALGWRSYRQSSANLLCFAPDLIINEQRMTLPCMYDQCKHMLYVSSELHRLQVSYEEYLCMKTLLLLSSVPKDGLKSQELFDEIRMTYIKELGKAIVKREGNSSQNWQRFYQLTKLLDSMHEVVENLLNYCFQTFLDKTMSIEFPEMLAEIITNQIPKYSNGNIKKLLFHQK

For assay [5], the target named is T5, 5-hydroxytryptamine receptor 2A (Homo sapiens, UniProt P28223). The format is functional, cell-based.
For assay [6], the target named is T6, Muscarinic acetylcholine receptor M1 (Homo sapiens, UniProt P11229).
T6 sequence (P11229 whole entry): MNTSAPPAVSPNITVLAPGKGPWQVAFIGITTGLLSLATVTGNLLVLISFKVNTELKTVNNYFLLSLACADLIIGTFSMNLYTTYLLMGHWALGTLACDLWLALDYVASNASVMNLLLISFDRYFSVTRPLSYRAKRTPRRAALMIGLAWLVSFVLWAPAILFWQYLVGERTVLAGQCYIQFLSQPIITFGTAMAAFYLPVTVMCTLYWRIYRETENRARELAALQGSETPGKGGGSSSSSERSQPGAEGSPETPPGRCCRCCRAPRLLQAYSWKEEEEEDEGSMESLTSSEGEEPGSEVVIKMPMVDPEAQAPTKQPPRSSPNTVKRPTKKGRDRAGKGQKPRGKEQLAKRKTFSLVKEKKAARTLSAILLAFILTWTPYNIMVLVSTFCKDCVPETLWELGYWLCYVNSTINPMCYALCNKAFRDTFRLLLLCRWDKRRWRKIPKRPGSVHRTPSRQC
It counts as functional.

Another assay concerns the target Histamine H1 receptor (Homo sapiens, UniProt P35367).
In assay [7] the target is T5, 5-hydroxytryptamine receptor 2A. The format is functional, cell-based. This is another data set of the same source.
Further: assay procedure not described here.

T5 sequence (P28223 whole entry): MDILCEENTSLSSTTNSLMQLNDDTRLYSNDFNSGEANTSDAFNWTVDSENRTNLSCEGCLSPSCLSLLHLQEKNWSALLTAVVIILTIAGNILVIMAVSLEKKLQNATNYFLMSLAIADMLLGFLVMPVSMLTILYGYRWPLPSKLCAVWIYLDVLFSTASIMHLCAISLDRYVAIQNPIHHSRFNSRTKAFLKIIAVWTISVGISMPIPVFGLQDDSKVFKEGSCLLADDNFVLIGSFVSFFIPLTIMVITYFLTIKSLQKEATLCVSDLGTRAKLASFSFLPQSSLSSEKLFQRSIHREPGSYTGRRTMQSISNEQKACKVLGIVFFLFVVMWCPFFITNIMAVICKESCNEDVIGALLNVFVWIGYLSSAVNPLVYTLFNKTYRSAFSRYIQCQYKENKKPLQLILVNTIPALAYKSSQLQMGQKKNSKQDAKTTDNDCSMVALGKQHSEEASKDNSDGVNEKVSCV
Chain of Gamma-aminobutyric acid receptor subunit alpha-1/alpha-2/beta-2/gamma-2 (P14867 whole entry): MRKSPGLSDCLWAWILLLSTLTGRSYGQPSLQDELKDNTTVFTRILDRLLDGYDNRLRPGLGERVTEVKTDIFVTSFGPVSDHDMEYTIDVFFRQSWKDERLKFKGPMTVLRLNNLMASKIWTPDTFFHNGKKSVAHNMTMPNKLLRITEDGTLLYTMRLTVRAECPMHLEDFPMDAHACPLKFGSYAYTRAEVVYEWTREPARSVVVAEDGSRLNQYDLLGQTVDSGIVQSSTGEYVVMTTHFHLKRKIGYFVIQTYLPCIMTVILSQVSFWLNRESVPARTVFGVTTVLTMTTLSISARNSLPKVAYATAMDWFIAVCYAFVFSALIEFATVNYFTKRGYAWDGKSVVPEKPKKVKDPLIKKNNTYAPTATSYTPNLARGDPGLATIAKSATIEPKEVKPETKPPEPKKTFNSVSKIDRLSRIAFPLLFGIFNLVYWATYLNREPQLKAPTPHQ
Chain of Gamma-aminobutyric acid receptor subunit alpha-1/alpha-2/beta-2/gamma-2 (P47870 whole entry): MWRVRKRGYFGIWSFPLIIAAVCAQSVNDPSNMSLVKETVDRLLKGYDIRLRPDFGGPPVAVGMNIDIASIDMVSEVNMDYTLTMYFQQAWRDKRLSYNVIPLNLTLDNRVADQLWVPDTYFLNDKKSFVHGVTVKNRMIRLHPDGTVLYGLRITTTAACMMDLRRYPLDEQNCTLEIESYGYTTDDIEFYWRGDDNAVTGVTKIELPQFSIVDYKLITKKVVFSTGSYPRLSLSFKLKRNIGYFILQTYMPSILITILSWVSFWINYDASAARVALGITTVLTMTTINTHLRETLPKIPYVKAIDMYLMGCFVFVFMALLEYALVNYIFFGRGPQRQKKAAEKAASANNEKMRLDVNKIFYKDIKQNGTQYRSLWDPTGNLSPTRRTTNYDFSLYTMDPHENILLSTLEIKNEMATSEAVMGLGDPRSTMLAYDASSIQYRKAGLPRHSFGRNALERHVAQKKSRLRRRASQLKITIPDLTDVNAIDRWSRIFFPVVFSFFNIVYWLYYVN
Chain of Gamma-aminobutyric acid receptor subunit alpha-1/alpha-2/beta-2/gamma-2 (P18507 whole entry): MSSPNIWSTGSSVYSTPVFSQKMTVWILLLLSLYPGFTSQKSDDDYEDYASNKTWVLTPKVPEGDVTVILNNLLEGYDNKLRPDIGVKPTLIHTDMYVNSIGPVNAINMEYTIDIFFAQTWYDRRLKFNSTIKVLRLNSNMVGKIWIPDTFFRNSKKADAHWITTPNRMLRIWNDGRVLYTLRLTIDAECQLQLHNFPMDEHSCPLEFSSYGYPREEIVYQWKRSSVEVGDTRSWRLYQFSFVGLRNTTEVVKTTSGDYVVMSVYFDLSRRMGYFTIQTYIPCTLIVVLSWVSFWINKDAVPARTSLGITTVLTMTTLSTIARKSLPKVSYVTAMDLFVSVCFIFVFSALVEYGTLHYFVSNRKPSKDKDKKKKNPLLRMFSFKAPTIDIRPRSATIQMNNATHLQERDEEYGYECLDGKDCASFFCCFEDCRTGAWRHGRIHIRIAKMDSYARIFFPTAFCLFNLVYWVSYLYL
Chain of Gamma-aminobutyric acid receptor subunit alpha-1/alpha-2/beta-2/gamma-2 (P47869 whole entry): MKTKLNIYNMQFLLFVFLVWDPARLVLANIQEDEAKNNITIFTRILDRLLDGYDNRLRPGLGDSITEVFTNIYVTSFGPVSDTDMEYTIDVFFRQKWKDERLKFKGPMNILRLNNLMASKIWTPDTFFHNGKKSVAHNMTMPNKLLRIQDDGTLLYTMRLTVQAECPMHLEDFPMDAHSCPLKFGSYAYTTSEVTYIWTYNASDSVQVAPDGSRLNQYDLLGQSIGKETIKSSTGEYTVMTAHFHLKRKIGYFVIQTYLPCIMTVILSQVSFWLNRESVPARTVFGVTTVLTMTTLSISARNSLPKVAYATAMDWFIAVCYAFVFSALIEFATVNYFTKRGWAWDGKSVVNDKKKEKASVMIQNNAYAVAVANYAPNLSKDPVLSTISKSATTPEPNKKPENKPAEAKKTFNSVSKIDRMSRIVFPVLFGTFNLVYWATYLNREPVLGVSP
Chain of Histamine H1 receptor (P35367 whole entry): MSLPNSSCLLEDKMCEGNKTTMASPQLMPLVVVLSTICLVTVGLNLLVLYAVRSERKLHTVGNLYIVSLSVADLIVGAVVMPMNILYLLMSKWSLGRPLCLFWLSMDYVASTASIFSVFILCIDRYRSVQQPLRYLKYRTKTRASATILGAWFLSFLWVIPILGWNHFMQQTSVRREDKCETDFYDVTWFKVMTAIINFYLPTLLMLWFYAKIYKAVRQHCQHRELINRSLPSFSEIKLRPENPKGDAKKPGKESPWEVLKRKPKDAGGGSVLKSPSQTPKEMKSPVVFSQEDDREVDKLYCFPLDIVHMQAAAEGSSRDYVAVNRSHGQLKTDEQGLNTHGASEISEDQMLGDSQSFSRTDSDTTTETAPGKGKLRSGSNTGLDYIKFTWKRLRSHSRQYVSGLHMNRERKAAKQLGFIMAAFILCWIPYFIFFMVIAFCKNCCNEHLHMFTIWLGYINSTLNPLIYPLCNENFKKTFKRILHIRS
Chain of Beta-2 adrenergic receptor (P07550 whole entry): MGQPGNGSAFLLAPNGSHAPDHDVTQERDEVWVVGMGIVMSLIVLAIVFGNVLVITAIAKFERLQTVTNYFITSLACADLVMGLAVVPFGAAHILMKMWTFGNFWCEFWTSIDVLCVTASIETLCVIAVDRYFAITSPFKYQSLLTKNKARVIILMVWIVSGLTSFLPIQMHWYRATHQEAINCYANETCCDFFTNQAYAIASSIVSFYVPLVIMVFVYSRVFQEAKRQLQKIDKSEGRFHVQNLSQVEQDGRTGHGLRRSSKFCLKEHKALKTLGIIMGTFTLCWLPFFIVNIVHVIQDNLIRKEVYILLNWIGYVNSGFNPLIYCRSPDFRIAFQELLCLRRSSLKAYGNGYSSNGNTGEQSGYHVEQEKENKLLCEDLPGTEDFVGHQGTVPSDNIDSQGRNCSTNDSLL
Chain of Muscarinic acetylcholine receptor M3 (P20309 whole entry): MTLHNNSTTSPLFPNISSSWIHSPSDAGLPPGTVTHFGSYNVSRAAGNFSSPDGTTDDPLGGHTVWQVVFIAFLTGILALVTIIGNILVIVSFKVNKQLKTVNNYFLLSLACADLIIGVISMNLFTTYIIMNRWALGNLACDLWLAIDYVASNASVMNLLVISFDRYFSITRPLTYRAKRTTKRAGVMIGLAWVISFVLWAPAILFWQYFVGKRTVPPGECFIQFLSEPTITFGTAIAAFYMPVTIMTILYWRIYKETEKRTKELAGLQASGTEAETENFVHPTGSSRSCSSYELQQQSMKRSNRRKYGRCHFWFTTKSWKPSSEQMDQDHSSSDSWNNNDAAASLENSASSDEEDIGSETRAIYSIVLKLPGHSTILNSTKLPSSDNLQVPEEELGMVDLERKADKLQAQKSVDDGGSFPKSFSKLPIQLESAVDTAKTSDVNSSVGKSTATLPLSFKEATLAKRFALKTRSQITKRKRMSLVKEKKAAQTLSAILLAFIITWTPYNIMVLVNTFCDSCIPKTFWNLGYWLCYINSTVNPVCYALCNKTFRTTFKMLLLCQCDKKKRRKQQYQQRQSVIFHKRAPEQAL

In turn, `CC1(C)S[C@@H]2[C@H](/N=C/N3CCCCCC3)C(=O)N2[C@H]1C(=O)O` [AMDINOCILLIN] had an AC50 at Adenosine receptor A1 of over 30 µM.

`NC(=O)[C@@H]1CC[C@@H]2CN1C(=O)N2OS(=O)(=O)O` [AVIBACTAM]: in assay [1], the AC50 was over 30 µM.

Regarding `CC(C)(C)NC(=O)N[C@H](C(=O)N1C[C@H]2[C@@H]([C@H]1C(=O)NC(CC1CCC1)C(=O)C(N)=O)C2(C)C)C(C)(C)C` (stereo partly drawn) [BOCEPREVIR], at Adenosine receptor A1, the AC50 is over 30 µM.

In the case of `O=C(O)COCCN1CCN(C(c2ccccc2)c2ccc(Cl)cc2)CC1` (stereo not drawn) [CETIRIZINE], the AC50 in assay [2] is over 30 µM; in [3], over 10 µM; at Endothelin-1 receptor it was over 30 µM; in [4], over 10 µM.

Turning to `NC[C@H]1CC[C@H](C(=O)Oc2ccc(CCC(=O)O)cc2)CC1` [CETRAXATE], the concentration at half-maximal activity (AC50) (in assay [2]; on Adenosine receptor A1) was over 30 µM throughout.

In the case of `C=C1CC[C@H](O)C/C1=C/C=C1\CCC[C@]2(C)[C@@H]([C@H](C)CCCC(C)C)CC[C@@H]12` [CHOLECALCIFEROL], the AC50 in [1] was over 30 µM.

`C[C@H](CCC(=O)O)[C@H]1CC[C@H]2[C@@H]3[C@H](O)C[C@@H]4C[C@H](O)CC[C@]4(C)[C@H]3C[C@H](O)[C@]12C` [CHOLIC ACID] displayed an AC50 in assay [1] of over 30 µM.

Molecule `Cc1ncc2c(c1O)COC2c1ccc(Cl)cc1` (stereo not drawn) [CICLETANINE] came in with an AC50 in assay [1] of over 30 µM.

The molecule `N#Cc1ccc(Oc2ccc3c(c2)COB3O)cc1` [CRISABOROLE] returned an AC50 in assay [1] of over 30 µM.

The molecule `CC(=O)O[C@H]1Cc2ccccc2N(C(N)=O)c2ccccc21` [ESLICARBAZEPINE ACETATE] yielded a concentration at half-maximal activity (AC50) in assay [1] of over 30 µM.

With `CN(C)CCCN1c2ccccc2CCc2ccccc21` [IMIPRAMINE], the AC50 is over 30 µM in assay [2], over 30 µM at Endothelin-1 receptor, over 30 µM on Glucocorticoid receptor and over 10 µM in assay [4].

The molecule `O=C(CCC/C=C\C[C@@H]1[C@@H](CC[C@@H](O)CCc2ccccc2)[C@H](O)C[C@@H]1O)OCCCCO[N+](=O)[O-]` [LATANOPROSTENE BUNOD] registered a concentration at half-maximal activity (AC50) on Adenosine receptor A1 of over 30 µM.

As to `CN(Cc1cnc2nc(N)nc(N)c2n1)c1ccc(C(=O)N[C@@H](CCC(=O)O)C(=O)O)cc1` [METHOTREXATE], the AC50 was over 30 µM in assay [2], over 30 µM at Endothelin-1 receptor and over 10 µM in assay [4].

In assay [1], `COc1ccc(OC)c(C(O)C(C)N)c1` (stereo not drawn) [METHOXAMINE] had an AC50 of over 30 µM.

Regarding `CC1(CCN2CCCCC2)C(=O)CCc2ccccc21` (stereo not drawn) [NEPINALONE], the AC50 in assay [1] was over 30 µM.

In turn, `COC(=O)C[C@](O)(CCCC(C)(C)O)C(=O)O[C@@H]1C(OC)=C[C@]23CCCN2CCc2cc4c(cc2[C@H]13)OCO4` [OMACETAXINE MEPESUCCINATE] returned an AC50 at Adenosine receptor A1 of over 30 µM.

On to `COc1cccc(C(=O)CCN[C@@H](C)[C@H](O)c2ccccc2)c1` [OXYFEDRINE], for which the AC50 in assay [1] was over 30 µM.

For the molecule `CC[N+](C)(CC)CCOC(=O)C(O)(c1ccccc1)C1CCCCC1` (stereo not drawn) [OXYPHENONIUM], in [1], the concentration at half-maximal activity (AC50) is over 30 µM.

In assay [1], `C[C@@H]1C[C@H]2[C@@H]3C[C@H](F)C4=CC(=O)C=C[C@]4(C)[C@H]3[C@@H](O)C[C@]2(C)[C@@]1(O)C(=O)CO` [PARAMETHASONE] displayed an AC50 of over 30 µM.

For `OC[C@H]1O[C@@H](n2cnc3c2NC=NC[C@H]3O)C[C@@H]1O` [PENTOSTATIN], the AC50 (in assay [2]; in [3]; in assay [5]; in assay [6]; at Endothelin-1 receptor; at Glucocorticoid receptor) was over 30 µM in each case. The AC50 (at Histamine H1 receptor; in [7]) was over 30 µM each time.

In the case of `NNCCc1ccccc1` [PHENELZINE], in assay [1], the concentration at half-maximal activity (AC50) was over 30 µM.

Regarding `CCCn1cnc2c1c(=O)n(CCCCC(C)=O)c(=O)n2C` [PROPENTOFYLLINE], in assay [1], the AC50 was over 30 µM.

Consider `CN[C@@H](C)[C@@H](O)c1ccccc1` [PSEUDOEPHEDRINE], for which the AC50 in [3] was over 10 µM; in assay [6], over 10 µM; at Endothelin-1 receptor it was over 30 µM; on Glucocorticoid receptor, over 30 µM; at Histamine H1 receptor, over 10 µM; in assay [4] it was over 10 µM.

Consider `COC(=O)[C@H]1[C@H]2C[C@@H]3c4[nH]c5cc(OC)ccc5c4CCN3C[C@H]2C[C@@H](OC(=O)c2cc(OC)c(OC)c(OC)c2)[C@@H]1OC` [RESERPINE], for which the AC50 (on Glucocorticoid receptor; in assay [1]) was over 10 µM each time.

In the case of `Clc1ccc(C(Cn2ccnc2)OCc2csc3c(Cl)cccc23)c(Cl)c1` (stereo not drawn) [SERTACONAZOLE], in assay [1], the AC50 is over 10 µM.

On to `CC(OCCN1CCCCCC1)(c1ccccc1)c1ccc(Cl)cc1` (stereo not drawn) [SETASTINE], for which the AC50 in [1] is over 30 µM.

The molecule `COc1cc(C)c2c(Oc3cccc(C(F)(F)F)c3)c(OC)cc(NC(C)CCCN)c2n1` (stereo not drawn) [TAFENOQUINE] returned an AC50 on Adenosine receptor A1 of over 30 µM.

In the case of `O=C1OC(OC(=O)c2cccnc2Nc2cccc(C(F)(F)F)c2)c2ccccc21` (stereo not drawn) [TALNIFLUMATE], the AC50 (in assay [2]; in assay [3]; in assay [5]; in [6]; on Endothelin-1 receptor; on Glucocorticoid receptor) was over 30 µM in each case. The half-maximal activity concentration (AC50) (at Histamine H1 receptor; in [7]) was over 30 µM in each case.

`O=S1(=O)CCN(CN2CCS(=O)(=O)NC2)CN1` [TAUROLIDINE]: the AC50 in assay [2] is over 30 µM; in assay [3], over 30 µM; in assay [5] it was over 30 µM; in [6], over 30 µM; on Adenosine receptor A1 it was over 30 µM; on Glucocorticoid receptor, over 10 µM. Also, the AC50 at Histamine H1 receptor was 4.6 µM; in [7] it was over 30 µM.

Regarding `c1ccc2c(SC3=NCCN3)c[nH]c2c1` [TINAZOLINE], the AC50 in assay [1] was over 30 µM.

For the molecule `Cc1ccc(C(=O)C(C)CN2CCCCC2)cc1` (stereo not drawn) [TOLPERISONE], the AC50 in [1] was over 30 µM.

Molecule `COc1ccc2c(C(=S)N(C)CC(=O)O)cccc2c1C(F)(F)F` [TOLRESTAT] returned an AC50 at Adenosine receptor A1 of over 30 µM.

The term AC50 denotes the midpoint of the concentration-response curve, whichever way the signal moves. Lower therefore signals greater potency.

The record behind these values is ChEMBL document CHEMBL5291721, “A preclinical secondary pharmacology resource illuminates target-adverse drug reaction associations of marketed drugs” (Nat Commun, 2023).
